Data from PMC10892984, “Novel Antineoplastic Inducers of Mitochondrial Apoptosis in Human Cancer Cells” (Molecules, 2024).
pEC50: −log10 of the molar value.

Experiments:
K-562 = conditions: for GI50 / CC50: Homo sapiens, K562, 48 h; for CC50: read-out: LC50; for TGI: K-562, leukemia, mutant p53, 48 h
HCT-15 = conditions: for TGI: HCT-15, colon cancer, mutant p53, 48 h; for GI50 / CC50: Homo sapiens, HCT-15, 48 h; for CC50: read-out: LC50
[1] = Cytotoxicity (CellTiter 96 AQueous One, MTS); format: cell-based; conditions: human; PBM cells
Experimental: (§1) The cytotoxicity and human immunodeficiency virus type 1 (HIV-1) strain LAI replication assays were performed in freshly explanted primary human peripheral blood mononuclear cells (PBM cells) according to published procedures. The assays were conducted at least in triplicate and treated statistically (if possible). HIV-1LAI (= HIV-1BRU = LAV-1) was assayed in primary human peripheral blood lymphocyte (PBL) cells in the presence of a drug being evaluated. The parameter for antiviral activity was a reduction in reverse transcriptase (RT) activity in the cell supernatant after Triton X–100-mediated lysis of released virions, as measured using [5α-^3H]dTTP (5α-tritiated thymidine 5′-triphosphate) incorporation into poly(rA)•poly(dT) directed by the primed RNA template poly(rA)•oligo(dT). […] Cytotoxicity on PBL and the other cells (CCRF−CEM, Vero) exerted by the test compounds was determined as described by Stuyver et al. by application of the CellTiter 96® AQueous One Solution Cell Proliferation Assay (Promega Corp., Madison, WI, USA). Briefly, the phenazine ethosulfate (PES)-coupled reduction of the tetrazolium salt 3-(4,5-dimethylthiazol-2-yl)-5-(3-carboxymethoxyphenyl)-2-(4-sulfophenyl)-2H-tetrazolium (MTS) to a purple, water-soluble formazan by living, undamaged cells was measured.

CCRF−CEM cells = experiment: Cytotoxicity (CellTiter 96 AQueous One, MTS); format: cell-based, human; conditions: Homo sapiens, 1.0 µM, read-out: CCRF–CEM growth inhibition at fixed 1.0 µM concentration
Experimental: (§2) The cytotoxicity and human immunodeficiency virus type 1 (HIV-1) strain LAI replication assays were performed in freshly explanted primary human peripheral blood mononuclear cells (PBM cells) according to published procedures. The assays were conducted at least in triplicate and treated statistically (if possible). HIV-1LAI (= HIV-1BRU = LAV-1) was assayed in primary human peripheral blood lymphocyte (PBL) cells in the presence of a drug being evaluated. The parameter for antiviral activity was a reduction in reverse transcriptase (RT) activity in the cell supernatant after Triton X–100-mediated lysis of released virions, as measured using [5α-^3H]dTTP (5α-tritiated thymidine 5′-triphosphate) incorporation into poly(rA)•poly(dT) directed by the primed RNA template poly(rA)•oligo(dT). […] The detailed assay methodology was reported by Schinazi et al. as based on an older assay system of Spira et al.. The experiments were conducted in triplicate and treated statistically using regression curve analysis (r^2 coefficient of determination). The RT inhibitor AZT (zidovudine, 3′-azido-3′-deoxythymidine; RETROVIR™) served as a positive control. Cytotoxicity on PBL and the other cells (CCRF−CEM, Vero) exerted by the test compounds was determined as described by Stuyver et al. by application of the CellTiter 96® AQueous One Solution Cell Proliferation Assay (Promega Corp., Madison, WI, USA). Briefly, the phenazine ethosulfate (PES)-coupled reduction of the tetrazolium salt 3-(4,5-dimethylthiazol-2-yl)-5-(3-carboxymethoxyphenyl)-2-(4-sulfophenyl)-2H-tetrazolium (MTS) to a purple, water-soluble formazan by living, undamaged cells was measured.

[2] = Cytotoxicity (CellTiter 96 AQueous One, MTS); format: cell-based, human; conditions: human; CCRF−CEM cells
Experimental: as §2

UACC-62 = conditions: for GI50 / CC50: Homo sapiens, UACC-62, 48 h; for CC50: read-out: LC50; for TGI: UACC-62, melanoma, wild-type p53, 48 h
U251 = conditions: for GI50 / CC50: Homo sapiens, U-251, 48 h; for CC50: read-out: LC50; for TGI: U251, CNS cancer (brain tumor), mutant p53, 48 h
HIV-1LAI = HIV-1LAI replication reverse transcriptase assay in primary PBM cells; format: cell-based, human immunodeficiency virus type 1
Experimental: as §2

[3] = Cytotoxicity (CellTiter 96 AQueous One, MTS); format: cell-based, African green monkey (grivet) Chlorocebus aethiops; conditions: African green monkey (Chlorocebus aethiops), Vero cells
Experimental: as §1

SR = conditions: for GI50 / CC50: Homo sapiens, 48 h; for CC50: read-out: LC50; for TGI: leukemia, wild-type p53, 48 h
HOP-92 = format: cell-based; conditions: HOP-92, non-small-cell lung cancer, mutant p53, 48 h
EKVX [4] = experiment: cells; conditions: Homo sapiens, 48 h, read-out: LC50
EKVX [5] = conditions: non-small-cell lung cancer, mutant p53, 48 h
[6] = Storage stability of the solid substance (1H-NMR after storage); format: physicochemical; conditions: over six years at +0–4 °C in the refrigerator
Experimental: The specimen of compound 3, which was synthesized on Saturday, 27 May 2017, was investigated using proton NMR (Figure 13) on Wednesday, 23 August 2023, after over six years of storage at +0–4 °C in the refrigerator. The specimen was newly dried over CaCl2 in vacuo for 19 h. […]

c1cc(CNC23CC4CC(CC(C4)C2)C3)cc(C[N+](Cc2cccc(CNC34CC5CC(CC(C5)C3)C4)c2)(Cc2cccc(CNC34CC5CC(CC(C5)C3)C4)c2)Cc2cccc(CNC34CC5CC(CC(C5)C3)C4)c2)c1 (stereo not shown) [Compound 1, tetrakis{3-[(tricyclo[3.3.1.1^3,7]decan-1-ammonio)methyl]benzyl}ammonium pentachloride]
TGI (HL-60 (TB); HL-60 (TB), leukemia, mutant p53, 48 h): 2.71 µM | GI50 (HL-60 (TB); Homo sapiens, HL-60, 48 h): 0.87 µM | GI50 (K-562): 1.46 µM | CC50 (K-562): > 50 µM | TGI (K-562): 36.2 µM | TGI (HCT-15): 3.91 µM | GI50 (HCT-15): 1.1 µM | CC50 (HCT-15): 18.4 µM | CC50 [1]: 2.2 µM | inhibition at 1 µM (CCRF−CEM cells): 60% | CC50 [2]: < 1 µM | GI50 (UACC-62): 1.16 µM | CC50 (UACC-62): 14.2 µM | TGI (UACC-62): 3.68 µM | GI50 (U251): 1.12 µM | CC50 (U251): 8.79 µM | TGI (U251): 2.69 µM | pEC50 (HIV-1LAI; Human immunodeficiency virus 1, PBMC, primary human PBM cells, reverse transcriptase activity in supernatant, read-out: Anti-HIV-1LAI activity EC50): 6.25 | EC90 (HIV-1LAI; Human immunodeficiency virus 1, PBMC, primary human PBM cells, reverse transcriptase activity in supernatant, read-out: Anti-HIV-1LAI activity EC90): 4.3 µM | SI50, selectivity index CC50/EC50 (HIV-1LAI; PBM cells): 3.9 | CC50 [3]: 1.8 µM | GI50 (SR): 1.49 µM | CC50 (SR): > 50 µM | TGI (SR): > 50 µM | TGI (HOP-92): 3.06 µM | GI50 (HOP-92; Homo sapiens): 1.14 µM | CC50 (HOP-92; Homo sapiens, read-out: LC50 (the source's name)): 12.6 µM

COc1cc2c(c(OC)c1OC)-c1ccc(NNC(N)=S)c(=O)cc1C(NC(C)=O)CC2 [Compound 2, N-[(aS,7S)-10-(2-carbamothioylhydrazinyl)-1,2,3-trimethoxy-9-oxo-5,6,7,9-tetrahydrobenzo[a]heptalen-7-yl]acetamide monohydrate × ⅔ (ethyl acetate)]
CC50 (EKVX [4]): > 100 µM | GI50 (K-562): 0.362 µM | CC50 (K-562): > 100 µM | TGI (K-562): > 100 µM | TGI (HCT-15): > 100 µM | GI50 (HCT-15): 4.03 µM | CC50 (HCT-15): > 100 µM | GI50 (UACC-62): 0.625 µM | CC50 (UACC-62): > 100 µM | TGI (UACC-62): > 100 µM | TGI (EKVX [5]): > 100 µM | GI50 (U251): 0.479 µM | CC50 (U251): > 100 µM | TGI (U251): > 100 µM | GI50 (SR): 0.279 µM | CC50 (SR): > 100 µM | TGI (SR): > 100 µM

COc1cc2c(c(OC)c1OC)-c1ccc(NNC(=S)N(Cc3cccc(C[N+](Cc4cccc(CNC56CC7CC(CC(C7)C5)C6)c4)(Cc4cccc(CNC56CC7CC(CC(C7)C5)C6)c4)Cc4cccc(CN(C(=S)NNc5ccc6c(cc5=O)C(NC(C)=O)CCc5cc(OC)c(OC)c(OC)c5-6)C56CC7CC(CC(C7)C5)C6)c4)c3)C34CC5CC(CC(C5)C3)C4)c(=O)cc1C(NC(C)=O)CC2 [Compound 3, [(bis{3-[(tricyclo[3.3.1.1^3,7]decan-1-ylamino)methyl]benzyl}ammonio)bis(methanediylbenzene-3,1-diylmethanediyl)]di-2-[(aS,7S)-7-(acetylamino)-1,2,3-trimethoxy-9-oxo-5,6,7,9-tetrahydrobenzo[a]heptalen-10-yl]-N-(tricyclo[3.3.1.1^3,7]decan-1-yl)hydrazinecarbothioamide chloride pentahydrate]
TGI (HCT-15): 5.96 µM | TGI (UACC-62): 6.38 µM | TGI (EKVX [5]): 8.46 µM | stability on storage (1H-NMR) [6]: very pure even after six years storage | TGI (HOP-92): 4.08 µM
